According to US20230172204A1 (BASF SE, priority 2020, published 2023):

Experiments:
[1] = system: Phakopsora pachyrhizi (F129L); test: Protective control of soybean rust on soybeans (PHAKPA P2); assay type: in vivo; settings: for % PHAKPA (F129L) Disease level P2 at 4 ppm: protective P2, 4 ppm; for % PHAKPA (F129L) Disease level P2 at 4 ppm / % PHAKPA (F129L) Disease level P2 at 16 ppm: soybean rust F129L; for % PHAKPA (F129L) Disease level P2 at 16 ppm: protective P2, 16 ppm
[2] = system: Phakopsora pachyrhizi (F129L); test: Protective control of soybean rust on soybeans (PHAKPA P6); assay type: in vivo; settings: for % PHAKPA (F129L) Disease level P6 at 4 ppm: protective P6, 4 ppm; for % PHAKPA (F129L) Disease level P6 at 4 ppm / % PHAKPA (F129L) Disease level P6 at 16 ppm: soybean rust F129L; for % PHAKPA (F129L) Disease level P6 at 16 ppm: protective P6, 16 ppm; for PHAKPA (F129L) Disease level (%) P6 at 16 ppm / PHAKPA (F129L) Disease level (%) P6 at 4 ppm: P6 protective, % diseased leaf area
[3] = P2 protective, % diseased leaf area

SMILES	PHAKPA (F129L) Disease level (%) P2 at 4 ppm [1, 3]	PHAKPA (F129L) Disease level (%) P6 at 16 ppm [2]	PHAKPA (F129L) Disease level (%) P2 at 16 ppm [1, 3]	other results
CO/C=C(/C(=O)OC)c1cccc(C)c1CO/N=C(\C)c1ccc(F)c(F)c1OC(F)(F)F [compound 450]	–	–	–	% PHAKPA (F129L) Disease level P2 at 4 ppm [1]: 3%; % PHAKPA (F129L) Disease level P2 at 16 ppm [1]: 1%; % PHAKPA (F129L) Disease level P6 at 4 ppm [2]: 4%; % PHAKPA (F129L) Disease level P6 at 16 ppm [2]: 1%
CNC(=O)/C(=N/OC)c1cccc(C)c1CO/N=C(\C)c1ccc(F)c(F)c1OC(F)(F)F [compound 451]	–	–	–	% PHAKPA (F129L) Disease level P2 at 4 ppm [1]: 1%; % PHAKPA (F129L) Disease level P2 at 16 ppm [1]: 0%; % PHAKPA (F129L) Disease level P6 at 4 ppm [2]: 2%; % PHAKPA (F129L) Disease level P6 at 16 ppm [2]: 0%
COC=C(C(=O)OC)c1cccc(C)c1CON=C(C)c1ccc(Cl)c(F)c1OC(F)(F)F [compound 452]	–	–	–	% PHAKPA (F129L) Disease level P2 at 4 ppm [1]: 60%; % PHAKPA (F129L) Disease level P2 at 16 ppm [1]: 6%; % PHAKPA (F129L) Disease level P6 at 4 ppm [2]: 70%; % PHAKPA (F129L) Disease level P6 at 16 ppm [2]: 14%
CNC(=O)/C(=N/OC)c1cccc(C)c1CO/N=C(/c1ccccc1)C(F)(F)F [compound 458]	–	–	–	% PHAKPA (F129L) Disease level P2 at 4 ppm [1]: 93%; % PHAKPA (F129L) Disease level P2 at 16 ppm [1]: 57%; % PHAKPA (F129L) Disease level P6 at 4 ppm [2]: 83%; % PHAKPA (F129L) Disease level P6 at 16 ppm [2]: 50%
CNC(=O)/C(=N/OC)c1cccc(OC)c1CO/N=C(\C)c1cccc(C(F)(F)F)c1 [compound 461]	–	–	–	% PHAKPA (F129L) Disease level P2 at 4 ppm [1]: 26%; % PHAKPA (F129L) Disease level P2 at 16 ppm [1]: 2%; % PHAKPA (F129L) Disease level P6 at 4 ppm [2]: 52%; % PHAKPA (F129L) Disease level P6 at 16 ppm [2]: 6%
COC=C(C(=O)OC)c1cccc(C)c1CON=C(C)c1ccccc1OC(F)(F)F [compound 462]	–	–	–	% PHAKPA (F129L) Disease level P2 at 4 ppm [1]: 37%; % PHAKPA (F129L) Disease level P2 at 16 ppm [1]: 6%; % PHAKPA (F129L) Disease level P6 at 4 ppm [2]: 55%; % PHAKPA (F129L) Disease level P6 at 16 ppm [2]: 10%
COC=C(C(=O)OC)c1cccc(C)c1CON=C(C)c1ccc(OC(F)(F)F)cc1Cl [compound 463]	–	–	–	% PHAKPA (F129L) Disease level P2 at 4 ppm [1]: 6%; % PHAKPA (F129L) Disease level P2 at 16 ppm [1]: 0%; % PHAKPA (F129L) Disease level P6 at 4 ppm [2]: 3%; % PHAKPA (F129L) Disease level P6 at 16 ppm [2]: 0%
COC=C(C(=O)OC)c1cccc(C)c1CON=C(C)c1ccc(OC)cc1C(F)(F)F [compound 464]	–	–	–	% PHAKPA (F129L) Disease level P2 at 4 ppm [1]: 1%; % PHAKPA (F129L) Disease level P2 at 16 ppm [1]: 0%; % PHAKPA (F129L) Disease level P6 at 4 ppm [2]: 8%; % PHAKPA (F129L) Disease level P6 at 16 ppm [2]: 0%
CO/N=C(/C(=O)OC)c1cccc(C)c1CO/N=C(\OC)c1cccc(C)c1 [drawing 970, reference compound]	83%	57%	–	–
CO/N=C(/C(=O)OC)c1cccc(C)c1CO/N=C(/c1cccc(C)c1)C1CC1 [drawing 971, reference compound]	80%	37%	–	–
CO/N=C(/C(=O)OC)c1cccc(C)c1CO/N=C(\SC)c1cccc(C)c1 [drawing 972, reference compound]	60%	30%	–	–
CNC(=O)/C(=N/OC)c1cccc(C)c1CO/N=C(/c1cccc(C)c1)C1CC1 [drawing 975, reference compound]	67%	67%	–	–
CNC(=O)/C(=N/OC)c1cccc(C)c1CO/N=C(\SC)c1cccc(Cl)c1 [drawing 979, reference compound]	20%	9%	–	–
CO/N=C(/C(=O)OC)c1cccc(C)c1CO/N=C(/c1cccc(Cl)c1)C1CC1 [drawing 981, reference compound]	83%	87%	–	–
CO/N=C(/C(=O)OC)c1cccc(C)c1CO/N=C(\SC)c1cccc(Cl)c1 [drawing 982, reference compound]	47%	18%	–	–
CNC(=O)/C(=N/OC)c1cccc(C)c1CO/N=C(\SC)c1cccc(C(F)(F)F)c1 [drawing 984, reference compound]	–	–	–	PHAKPA (F129L) Disease level (%) P2 at 1 ppm ([1]; P2 protective, 1 ppm, % diseased leaf area): 32%; PHAKPA (F129L) Disease level (%) P6 at 4 ppm [2]: 43%
CO/C=C(/C(=O)OC)c1ccccc1CO/N=C(\C)c1cccc(C(F)(F)F)c1 [reference compound]	6%	–	–	PHAKPA (F129L) Disease level (%) P6 at 4 ppm [2]: 30%
CNC(=O)/C(=N/OC)c1ccccc1CO/N=C(\C)c1cccc(Br)c1 [reference compound]	27%	–	–	PHAKPA (F129L) Disease level (%) P6 at 4 ppm [2]: 70%
CNC(=O)/C(=N/OC)c1ccccc1CO/N=C(\C)c1ccc(C)cc1 [reference compound]	100%	–	–	PHAKPA (F129L) Disease level (%) P6 at 4 ppm [2]: 100%
CNC(=O)/C(=N/OC)c1ccccc1CO/N=C(\C)c1ccc(Cl)cc1 [reference compound]	40%	–	–	PHAKPA (F129L) Disease level (%) P6 at 4 ppm [2]: 80%
CNC(=O)/C(=N/OC)c1ccccc1CO/N=C(\C)c1cccc(Cl)c1 [reference compound]	43%	–	–	PHAKPA (F129L) Disease level (%) P6 at 4 ppm [2]: 80%
CNC(=O)/C(=N/OC)c1ccccc1CO/N=C(\C)c1cc(Cl)cc(Cl)c1 [reference compound]	100%	–	–	PHAKPA (F129L) Disease level (%) P6 at 4 ppm [2]: 97%
CNC(=O)/C(=N/OC)c1ccccc1CO/N=C(\C)c1ccccc1 [reference compound]	87%	–	–	PHAKPA (F129L) Disease level (%) P6 at 4 ppm [2]: 100%
CNC(=O)/C(=N/OC)c1ccccc1CO/N=C(\C)c1cccc(C(F)(F)F)c1 [reference compound]	12%	–	–	PHAKPA (F129L) Disease level (%) P6 at 4 ppm [2]: 38%

SMILES	PHAKPA (F129L) Disease level (%) P2 at 4 ppm [1, 3]	PHAKPA (F129L) Disease level (%) P6 at 16 ppm [2]	PHAKPA (F129L) Disease level (%) P2 at 16 ppm [1, 3]	other results
CNC(=O)/C(=N/OC)c1ccccc1CO/N=C(\C)c1ccc(Cl)c(Cl)c1 [reference compound]	43%	–	–	PHAKPA (F129L) Disease level (%) P6 at 4 ppm [2]: 77%
CCc1ccc(/C(C)=N/OCc2ccccc2/C(=N\OC)C(=O)NC)cc1 [reference compound]	35%	–	–	PHAKPA (F129L) Disease level (%) P6 at 4 ppm [2]: 83%
CNC(=O)/C(=N/OC)c1ccccc1CO/N=C(\C)c1cc(Cl)ccc1Cl [reference compound]	87%	–	–	PHAKPA (F129L) Disease level (%) P6 at 4 ppm [2]: 97%
CC/C(=N\OCc1ccccc1/C(=N\OC)C(=O)NC)c1cccc(C(F)(F)F)c1 [reference compound]	60%	–	–	PHAKPA (F129L) Disease level (%) P6 at 4 ppm [2]: 70%
CNC(=O)/C(=N/OC)c1ccccc1CO/N=C(/c1ccccc1)C(F)F [reference compound]	43%	–	–	PHAKPA (F129L) Disease level (%) P6 at 4 ppm [2]: 90%
CNC(=O)/C(=N/OC)c1ccccc1CO/N=C(\C)c1ccccc1Br [reference compound]	–	28%	23%	–
CNC(=O)/C(=N/OC)c1ccccc1CO/N=C(\C)c1ccccc1OC [reference compound]	–	80%	87%	–
CNC(=O)/C(=N/OC)c1ccccc1CO/N=C(\C)c1ccc(-c2ccccc2)cc1 [reference compound]	–	28%	37%	–
CNC(=O)/C(=N/OC)c1ccccc1CO/N=C(\C)c1ccc(C#N)cc1 [reference compound]	–	63%	37%	–
CNC(=O)/C(=N/OC)c1ccccc1CO/N=C(\C)c1ccc(Cl)c(C(F)(F)F)c1 [reference compound]	–	4%	11%	–
CNC(=O)/C(=N/OC)c1ccccc1CO/N=C(\C)c1cccc(C(F)F)c1 [reference compound]	–	35%	16%	–
CNC(=O)/C(=N/OC)c1ccccc1CO/N=C(/c1ccc(F)cc1)C(F)F [reference compound]	–	15%	15%	–
CNC(=O)/C(=N/OC)c1ccccc1CO/N=C(\C)c1cccc(N2CC(F)(F)C2)c1 [reference compound]	–	53%	70%	–
CNC(=O)/C(=N/OC)c1ccccc1CO/N=C(\C)c1cccc(-c2noc(C(F)(F)F)n2)c1 [reference compound]	–	32%	23%	–
CO/N=C(/C(=O)OC)c1ccccc1CO/N=C(\C)c1ccccc1C(F)(F)F [reference compound]	–	90%	87%	–
CO/N=C(/C(=O)OC)c1ccccc1CO/N=C(\C)c1ccc(C)cc1 [reference compound]	–	10%	25%	–
CO/N=C(/C(=O)OC)c1ccccc1CO/N=C(\C)c1ccc(OC)cc1 [reference compound]	–	33%	67%	–
CO/N=C(/C(=O)OC)c1ccccc1CO/N=C(\C)c1ccccc1F [reference compound]	–	77%	83%	–
CO/N=C(/C(=O)OC)c1ccccc1CO/N=C(\C)c1ccc(C(F)(F)F)cc1 [reference compound]	–	13%	43%	–
CO/N=C(/C(=O)OC)c1ccccc1CO/N=C(\C)c1ccccc1 [reference compound]	–	43%	87%	–
CO/N=C(\C)c1ccc(/C(C)=N/OCc2ccccc2/C(=N\OC)C(=O)OC)cc1 [reference compound]	–	60%	57%	–
CO/N=C(/C(=O)OC)c1ccccc1CO/N=C(\C)c1ccc(C#N)cc1 [reference compound]	–	53%	87%	–
CO/N=C(/C(=O)OC)c1ccccc1CO/N=C(/c1ccc(Cl)cc1)C(F)F [reference compound]	–	90%	100%	–
